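Exposure lasted 48 hours, with cells grown in 96-well plates and compounds tested at five concentrations. GI50 marks 50% less growth.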 Calls of active or inactive are those of the source. Rule as the data show it: active = GI50 up to about 1.1 µM and inactive = higher.
Columns and labels:
Assay in all cases: growth of human tumour cells (NCI), 48 h
A498 = test system: A498
ACHN = test system: ACHN
CCRF-CEM = test system: CCRF-CEM
LOX IMVI = test system: LOX IMVI
M14 = test system: M14
Malme-3M = test system: Malme-3M
NCI-H23 = test system: NCI-H23
OVCAR-3 = test system: OVCAR-3
RPMI-8226 = test system: RPMI-8226
RXF 393 = test system: RXF 393
SF-295 = test system: SF-295
SF-539 = test system: SF-539
SK-MEL-28 = test system: SK-MEL-28
SW-620 = test system: SW-620
TK-10 = test system: TK-10
U-251 = test system: U-251
UACC-257 = test system: UACC-257
UACC-62 = test system: UACC-62
HT-29 = test system: HT-29

Measured: GI50

Cc1ccc(C2NC(=O)c3ccccc3N2)s1 (stereo not drawn)
inactive: A498 6.78 µM | ACHN > 100 µM | CCRF-CEM 3.27 µM | LOX IMVI 6.55 µM | M14 8.05 µM | Malme-3M 4.8 µM | NCI-H23 4.36 µM | OVCAR-3 3.8 µM | RPMI-8226 4.69 µM | RXF 393 5.86 µM | SF-295 2.37 µM | SF-539 3.28 µM | SK-MEL-28 5.81 µM | SW-620 2.94 µM | TK-10 > 100 µM | U-251 4.6 µM | UACC-257 2.32 µM | UACC-62 5.51 µM

Cc1ccc(S(=O)(=O)NCCSCCNS(=O)(=O)c2ccc(C)cc2)cc1
inactive: A498 > 100 µM | ACHN > 100 µM | CCRF-CEM > 100 µM | HT-29 > 100 µM | LOX IMVI > 100 µM | M14 > 100 µM | NCI-H23 > 100 µM | OVCAR-3 > 100 µM | RXF 393 > 100 µM | SF-295 > 100 µM | SK-MEL-28 > 100 µM | SW-620 > 100 µM | TK-10 > 100 µM | U-251 > 100 µM | UACC-257 > 100 µM

C=CC[N+](CCO)(CCO)CCCCCCCCCCCCCCCCCC
inactive: A498 15.6 µM | CCRF-CEM 1.23 µM | HT-29 3.08 µM | LOX IMVI 2.75 µM | Malme-3M 14.8 µM | NCI-H23 12.5 µM | OVCAR-3 5.11 µM | RPMI-8226 2.25 µM | RXF 393 2.19 µM | SF-295 4.41 µM | SF-539 3.54 µM | SK-MEL-28 12.9 µM | SW-620 6.24 µM | U-251 1.97 µM | UACC-257 6.38 µM | UACC-62 4.58 µM

C/C=C/c1cc2c(c(=O)o1)C(=O)[C@@H](O)[C@H](C)O2
inactive: A498 12 µM | CCRF-CEM 5.46 µM | HT-29 14.4 µM | LOX IMVI 12.6 µM | Malme-3M 17.3 µM | NCI-H23 17 µM | OVCAR-3 17.7 µM | RPMI-8226 4.09 µM | RXF 393 12.3 µM | SF-295 21 µM | SF-539 18.6 µM | SK-MEL-28 15 µM | SW-620 11 µM | U-251 17.6 µM | UACC-257 14.4 µM | UACC-62 17.5 µM

C=CCCCCn1c2ccccc2c2c(C)c3cnccc3c(C)c21
inactive: A498 5.86 µM | CCRF-CEM 4.04 µM | HT-29 7 µM | LOX IMVI 7.55 µM | Malme-3M 9.02 µM | NCI-H23 4.63 µM | OVCAR-3 4.99 µM | RPMI-8226 2.81 µM | RXF 393 6.25 µM | SF-295 8.71 µM | SF-539 12.5 µM | SK-MEL-28 9.82 µM | SW-620 4.54 µM | U-251 12.5 µM | UACC-257 4.5 µM | UACC-62 11.2 µM

COC[C@H](C)/N=C/N1CCc2ccccc2C1(Cc1ccccc1)Cc1ccccc1
inactive: ACHN 21.2 µM | CCRF-CEM 12.9 µM | HT-29 5.07 µM | M14 10.3 µM | Malme-3M 11.8 µM | NCI-H23 17.2 µM | OVCAR-3 22.1 µM | RPMI-8226 15.8 µM | RXF 393 15.2 µM | SF-295 14.5 µM | SF-539 18.2 µM | SK-MEL-28 11.1 µM | SW-620 22.6 µM | TK-10 17.8 µM | U-251 13.8 µM | UACC-257 13.8 µM | UACC-62 26.9 µM

CCOC(=O)C1(Cc2ccc3ccccc3c2)CCCCC(=O)N1 (stereo not drawn)
inactive: ACHN 67.5 µM | CCRF-CEM 23.3 µM | HT-29 30.8 µM | LOX IMVI 24.1 µM | M14 39.3 µM | Malme-3M 11.9 µM | NCI-H23 26 µM | OVCAR-3 17.5 µM | RPMI-8226 3.78 µM | RXF 393 > 100 µM | SF-295 8.89 µM | SK-MEL-28 41 µM | SW-620 27.5 µM | TK-10 56.1 µM | U-251 41.1 µM | UACC-62 36.1 µM

OCc1ccccc1C1CSCSC1
inactive: ACHN > 100 µM | CCRF-CEM > 100 µM | HT-29 > 100 µM | LOX IMVI > 100 µM | Malme-3M > 100 µM | OVCAR-3 > 100 µM | RXF 393 > 100 µM | SF-295 > 100 µM | SF-539 > 100 µM | SK-MEL-28 > 100 µM | SW-620 > 100 µM | TK-10 > 100 µM | U-251 > 100 µM | UACC-257 > 100 µM | UACC-62 > 100 µM

CC1=C2[C@@H](c3ccccc3)C3C=CC2(C=C3C(F)(F)F)N(C(=O)NC2CCCCC2)C1=O (stereo partly drawn)
inactive: A498 > 100 µM | ACHN > 100 µM | CCRF-CEM 25.1 µM | HT-29 72.9 µM | LOX IMVI 44 µM | M14 81.3 µM | Malme-3M > 100 µM | NCI-H23 59.8 µM | OVCAR-3 > 100 µM | RXF 393 > 100 µM | SF-295 > 100 µM | SF-539 52.4 µM | SK-MEL-28 > 100 µM | SW-620 > 100 µM | TK-10 > 100 µM | U-251 > 100 µM | UACC-257 36.2 µM | UACC-62 > 100 µM

CC(C(=O)COCc1ccccc1)P1(=O)OC(C)(C)CN1C(C)(C)C (stereo not drawn)
inactive: A498 > 100 µM | ACHN > 100 µM | CCRF-CEM > 100 µM | HT-29 > 100 µM | LOX IMVI > 100 µM | M14 > 100 µM | NCI-H23 > 100 µM | OVCAR-3 > 100 µM | RPMI-8226 > 100 µM | RXF 393 > 100 µM | SF-295 > 100 µM | SF-539 > 100 µM | SW-620 > 100 µM | TK-10 > 100 µM | UACC-257 > 100 µM | UACC-62 > 100 µM

Cn1cc(C(=O)c2ccccc2)ccc1=O
inactive: ACHN > 100 µM | CCRF-CEM > 100 µM | HT-29 > 100 µM | LOX IMVI > 100 µM | M14 > 100 µM | Malme-3M > 100 µM | NCI-H23 > 100 µM | OVCAR-3 > 100 µM | RPMI-8226 > 100 µM | RXF 393 > 100 µM | SF-295 > 100 µM | SF-539 > 100 µM | SK-MEL-28 > 100 µM | SW-620 > 100 µM | TK-10 > 100 µM | U-251 > 100 µM | UACC-257 > 100 µM | UACC-62 > 100 µM

O=C(/C(=C/c1ccc(O)cc1)c1ccccc1)c1ccccc1
inactive: A498 17.9 µM | ACHN 16.1 µM | CCRF-CEM 20 µM | HT-29 18.1 µM | LOX IMVI 13.2 µM | M14 17.1 µM | Malme-3M 19 µM | NCI-H23 15 µM | RPMI-8226 17.3 µM | SF-295 16.1 µM | SF-539 16.6 µM | SK-MEL-28 17.9 µM | SW-620 18 µM | TK-10 16.2 µM | U-251 16.2 µM | UACC-257 18 µM | UACC-62 14.1 µM

CCCCCCCCCC/C=C/C=O
inactive: A498 > 100 µM | ACHN > 100 µM | CCRF-CEM > 100 µM | HT-29 > 100 µM | LOX IMVI > 100 µM | M14 > 100 µM | Malme-3M > 100 µM | NCI-H23 > 100 µM | OVCAR-3 > 100 µM | RXF 393 > 100 µM | SF-295 > 100 µM | SF-539 > 100 µM | SK-MEL-28 > 100 µM | SW-620 > 100 µM | TK-10 > 100 µM | U-251 > 100 µM | UACC-257 > 100 µM | UACC-62 > 100 µM

C1CCC(OCc2nnn3c2CCC3)OC1 (stereo not drawn)
inactive: ACHN > 100 µM | CCRF-CEM > 100 µM | HT-29 > 100 µM | LOX IMVI > 100 µM | M14 > 100 µM | Malme-3M > 100 µM | NCI-H23 > 100 µM | OVCAR-3 > 100 µM | RXF 393 > 100 µM | SF-295 > 100 µM | SF-539 > 100 µM | SK-MEL-28 > 100 µM | SW-620 > 100 µM | TK-10 > 100 µM | U-251 > 100 µM | UACC-257 > 100 µM | UACC-62 > 100 µM

OC(c1ccoc1)c1cc2ccccc2s1 (stereo not drawn)
inactive: ACHN > 10 µM | CCRF-CEM > 10 µM | HT-29 > 10 µM | LOX IMVI > 10 µM | M14 > 10 µM | NCI-H23 > 10 µM | OVCAR-3 > 10 µM | RPMI-8226 > 10 µM | RXF 393 > 10 µM | SF-295 > 10 µM | SF-539 > 10 µM | SK-MEL-28 > 10 µM | SW-620 > 10 µM | TK-10 > 10 µM | U-251 > 10 µM | UACC-257 > 10 µM | UACC-62 > 10 µM

CCOC(=O)C(=O)Nc1ccccc1CC
inactive: ACHN > 100 µM | CCRF-CEM > 100 µM | HT-29 > 100 µM | LOX IMVI > 100 µM | M14 > 100 µM | Malme-3M > 100 µM | NCI-H23 > 100 µM | OVCAR-3 > 100 µM | RPMI-8226 > 100 µM | RXF 393 > 100 µM | SF-295 > 100 µM | SF-539 > 100 µM | SK-MEL-28 > 100 µM | SW-620 > 100 µM | TK-10 > 100 µM | U-251 > 100 µM | UACC-257 > 100 µM | UACC-62 > 100 µM

— ChEMBL document CHEMBL1201862, “PubChem BioAssay data set” (2004)
